In brackets after ≈: the same amount, converted by molar mass. Where two headings read alike, the source gives them in different places.
Legend:
[1] = ground for 5 hours
Procedure: Grinding experiments were performed to obtain amorphous brigatinib. […] In a mechanical stress test via grinding, a sample of Form A was ground for 2, 3, 4 and 5 hours. Recovered solids were analyzed by XRPD and HPLC.
Grinding. Two grinding experiments were performed on samples of Form A with two different durations (30 and 60 min) at a frequency of 30 Hz. […] Mechanical stress via grinding experiments were also performed, with grinding times of 2, 3, 4, and 5 hours.

Compression tests = format: physicochemical; conditions: 3 and 6 ton/cm^2 for one minute
Procedure: Compression tests were performed on brigatinib Form A in order to determine whether pressure-induced phase transformations or loss of crystallinity occurred. The press used was an Atlas Manual 25 Ton Hydraulic Press (from SPECAC). Experiments were carried out at 3 and 6 ton/cm^2 for one minute in each case.

Variable humidity XRPD = format: physicochemical
Procedure: The temperature variation rate was 10° C./min.
The relative humidity was increased from the starting amount, brought up to the maximum, then dried back to the minimum value. The data collection time was 41 min at each step, time starting after equilibration of the relative humidity.
The peaks shifts were reversible at RH of about 30%. A sample of Form A was then exposed to 80% RH for 15 h. The peaks shifts had occurred after 90 min, and the extent of the shifts remained constant throughout the exposure at 80% RH for 15 h. Upon return to 10% RH, the peaks shifted to their original position. To investigate the amount of water adsorbed, a new sample of Form A was exposed for 2 h at 80% and a TGMS of this sample was measured.
For Form B, the relative humidity was measured at 30° C. The RH % values measured were 10, 30, 50, 60, 65, 70, 75, and 80%. […] At 80% RH the conversion to Form C was completed. Upon desorption, Form C dehydrates to Form B, starting at about 30% RH. At 10% RH the conversion to Form B was completed.
For Form C, a hydrate, the relative humidity was measured at 30° C. The experiment was performed starting at the maximum RH and dehydrated, then rehydrated back up to the maximum value. The RH % values measured were 10, 15, 20, 25, 30, 35, 40, 60, and 80%. Upon desorption, Form C dehydrated to Form B, starting at about 25% RH. At 10% RH, the conversion to Form B was complete. Upon sorption, Form B converted to Form C, starting at about 60% RH. At 80% RH the conversion to Form C was complete. The results are consistent with the corresponding experiments of Form B.
For Form D, a hydrate, the relative humidity was measured at 30° C. The experiment was performed starting at the maximum RH and dehydrated, then rehydrated back up to the maximum value. The RH % values measured were 10, 15, 20, 25, 30, 35, 40, 60, and 80%. […] Form C dehydrated to Form B, starting at about 20% RH. At 10% RH, the conversion to Form B was complete. Upon sorption, Form B converted to Form C, starting at about 40% RH. At 80% RH, the conversion to Form C was complete.

[2] = Dissolution rate from a powdered sample in water; format: physicochemical; conditions: powder, 37° C.
Procedure: For determining the dissolution rate from a powdered sample, approximately 5 mg of brigatinib (Form A or B) was weighed into a 5 mL dissolution vial and the dissolution probe was inserted into the vial. Subsequently, 4 mL of water was added at the same time the measurement was initiated. The concentration was recorded for 20 h.
For measuring the dissolution rate from powder, the test was only performed in water for Forms A and B at 37° C., as the solubilities of Forms A and B were […] enough to permit detection.

[3] = for solid form (XRPD, analyzed wet): slurry in Water, 25° C.
Procedure: In a second set of slurry experiments, the same amounts of Form A and Form B were weighed into 1.8 mL vials, and charged with a stirring bar. After addition of the solvent, the slurries were placed at 25° C. and 50° C., under stirring. Material from the slurries was sampled at the time points of 2, 4 and 14 days (sampling from the same vial per solvent and per temperature). These materials were analyzed wet by XRPD and digital imaging.

[4] = Dynamic vapor sorption (DVS); format: physicochemical; conditions: for Hygroscopicity: general statement
Procedure: In a […] vapor sorption (DVS) experiment with Form A, the sample was first dried at 0% RH for 6 hours. Then, the relative humidity was cycled from 5% to 95% RH (sorption), then to 5% RH (desorption) at a constant temperature of 25° C., with a hold time of 60 minutes per step.
In three DVS experiments, the relative humidity was varied as follows:
Expt. 4: 0% for 6 h→5% for 1 h→15% for 1 h→25-85% gradient over 2 h→95 for 5 h RH

[5] = Intrinsic dissolution rate (IDR); format: physicochemical
Procedure: For measuring the intrinsic dissolution rate (IDR), the starting material was tableted using a mini-IDR compression system (pION/Heath Scientific). For preparation of the tablets, approximately 11 mg of material was pressed in the cylindrical hole of a passivated stainless steel die, to a uniform, flat surface, with an exposed area of 0.072 cm^2. The pressure applied was approximately 50 bar for 3-5 min. The sample die was inserted in a cylindrical Teflon rotating disk carrier containing an embedded magnetic stirring bar at its base. The die/stirrer assembly was placed in a flat bottomed glass vial, ready for dissolution analysis.
The dissolution rate was measured in 20 mL of solvent (medium) and the path length of the UV meter was 2 mm. Applied stirring speed during measurement was 100 rpm. Measurements were performed at 20° C. and 37° C.
In the first series, the IDR of Forms A and B were determined in monoplicate. […] In FIGS. 30-37, the IDRs are plotted for comparison between the forms and the same medium or between various media and the same form. The IDR of each of Forms A and B in the various media increases with increasingly acidic media (see FIGS. 34-37).
In several cases, the results were counter-intuitive. […] The results of these additional experiments are plotted in FIGS. 38-42.

physchem [6] = conditions: thermodynamic from solid; for solubility at 24 h: Solub
Procedure: (§1) For each medium, a standard 1.8 mL screw cap vial was charged with circa 40 mg of the starting material, 400 μl of solvent and a magnetic stirring bar (in the cases of chloroform and dichloromethane 200 μl of solvent were used). The vials were subsequently closed and equilibrated at the corresponding temperature for 24 h while stirring. The liquid part was retrieved with a syringe and filtered (0.5 micron filter); the isolated mother liquors were diluted to two dilutions selected according to the calibration curve. Quantities of the API in the diluted solutions were determined via HPLC analysis (DAD). […] Subsequently, the separated solids were measured wet by XRPD to confirm the solid form of which the solubility was measured.

physchem [7] = conditions: thermodynamic from solid
[8] = 24 h
Procedure: as §1

[9] = not given; remark: listed apart in the source
[10] = 37 °C, pH 1, simulated gastric fluid
[11] = 30° C., sample started as the labelled form
[12] = VT-XRPD, sample started as the labelled form

For `COc1cc(N2CCC(N3CCN(C)CC3)CC2)ccc1Nc1ncc(Cl)c(Nc2ccccc2P(C)(C)=O)n1` [Form A, brigatinib], the “Solid state after grinding (XRPD)” value [1] was “almost completely amorphous”, the “Phase transformation under pressure (XRPD)” value (Compression tests) was “no phase transitions or peak shifts” and the “Purity by HPLC after compression” value (Compression tests) was “comparable to that of the starting material”. The “Phase transition with humidity (VH-XRPD)” value (Variable humidity XRPD; 30 and 60° C.) was “did not show any phase transition”, the “Mass loss by TGMS after humidity exposure (water adsorbed)” value (Variable humidity XRPD; exposed for 2 h at 80% RH) was 0.35% and the “Water molecules adsorbed after humidity exposure” value (Variable humidity XRPD; exposed for 2 h at 80% RH) was 0.1 water molecules. The “Concentration at 10 min” value [2] was 70 µg/mL, the “Concentration at 20 h” value [2] was 140 µg/mL and the “solid form (XRPD, analyzed wet)” value ([3]; 2 Days) was “A + D”. The “solid form (XRPD, analyzed wet)” value ([3]; 4 days) was “A + D”, the “Hygroscopicity (DVS)” value ([4]; 5% to 95% RH, then to 5% RH, 25° C., 60 minutes per step) was “not hygroscopic” and the Hygroscopicity [4] was “not hygroscopic”. For the same compound, the “Phase transformation on heating (VT-XRPD)” value (25 to 200° C.) was “did not reveal any phase transformation”, the “Amount that could be dissolved in the stomach together with a 200 ml glass of water” value ([5]; numbers are only indicative) was “about 50 mg” and the “Concentration reached in IDR measurement” value ([5]; pH 1.0 and SGF, within 5 min) was ~250 µg/mL. The “Solid form stability when slurried (IDR experiments)” value ([5]; water, SGF, and pH 1.0 aqueous buffer) was “remains stable”, the solubility at 24 h (physchem [6]; 25 °C, pH 1, simulated gastric fluid) was 60.4 ± 2.9 mg/mL (≈ 103 mM) and the solubility at 24 h (physchem [6]; 25 °C, pH 4.5, aqueous buffer) was 24.4 ± 1.2 mg/mL (≈ 41.8 mM). For the same compound, the solubility at 24 h (physchem [6]; 25 °C, pH 6.8, aqueous buffer) was 8.6 ± 1.4 mg/mL (≈ 14.7 mM), the solubility at 24 h (physchem [6]; 25 °C, water) was 0.11 mg/mL (≈ 0.188 mM) and the solubility at 24 h (physchem [6]; [10]) was 70.6 ± 1.5 mg/mL (≈ 121 mM). It also gave a solubility (physchem [6]; [10]) of 70 mg/mL (≈ 120 mM), a solubility at 24 h (physchem [6]; 37 °C, pH 4.5, aqueous buffer) of 26 mg/mL (≈ 44.5 mM) and a solubility (physchem [6]; 37 °C, pH 4.5, aqueous buffer) of 26 mg/mL (≈ 44.5 mM). For the same compound, the solubility (physchem [6]; 37 °C, pH 6.5, aqueous buffer) was 6 mg/mL (≈ 10.3 mM), the solubility at 24 h (physchem [6]; 37 °C, pH 6.8, aqueous buffer) was 6.2 ± 0.1 mg/mL (≈ 10.6 mM) and the solubility at 24 h (physchem [6]; 37 °C, simulated gastric fluid) was 51.7 ± 0.6 mg/mL (≈ 88.5 mM). The solubility (physchem [6]; simulated gastric fluid) was 52 mg/mL (≈ 89 mM), the solubility (physchem [7]; pH 1.7, simulated gastric fluid) was 177 mg/mL (≈ 303 mM) and the solubility (physchem [7]; pH 2.4, aqueous buffer) was 329 mg/mL (≈ 563 mM). For the same compound, the solubility (physchem [7]; pH 3.6, aqueous buffer) was 173 mg/mL (≈ 296 mM), the solubility (physchem [7]; pH 6.2, aqueous buffer) was 8 mg/mL (≈ 13.7 mM) and the solubility (physchem [7]; pH 7.2, aqueous buffer) was 11 mg/mL (≈ 18.8 mM). It also gave a Solub [8] of 0.1 ± 0.0 mg/mL.

In the case of `COc1cc(N2CCC(N3CCN(C)CC3)CC2)ccc1Nc1ncc(Cl)c(Nc2ccccc2P(C)(C)=O)n1` [Form B, brigatinib], the “Solid form after humidity exposure” value ([9]; 90% RH for one day) is reported as “converted to a mixture of Forms C and D”, the “Solid form conversion on slurrying (XRPD, wet)” value ([9]; room temperature, water, HCl buffer of pH 1.0) is reported as “converted to the heptahydrate Form D after 45 min” and the “Humidity level at which Form B converts to the hydrated Forms C and D” value (Variable humidity XRPD; 30° C., reversible) is reported as “above 60 % RH”. For the same compound, the “RH at which Form B starts to convert to hydrated Form C (sorption)” value (Variable humidity XRPD; [11]) was “about 65 % RH”, the “RH at which Form C starts to dehydrate to Form B (desorption)” value (Variable humidity XRPD; [11]) was “about 30 % RH” and the “RH at which conversion to Form B was complete (desorption)” value (Variable humidity XRPD; [11]) was 10 % RH. For the same compound, the “RH at which conversion to Form C was complete (sorption)” value (Variable humidity XRPD; [11]) was 80 % RH, the “Solid form conversion in slurry with Form A (XRPD, wet)” value ([3]; all organic solvents and water at 37° C., sampled at 2, 4 and 14 days) was “converted to Form A” and the “Solid form conversion in slurry with Form A (XRPD, wet)” value ([3]; water at 25° C. (aqueous environment), 2 and 4 days) was “converted to Form D”. The “Solid form after DVS cycle (XRPD)” value ([4]; Expt. 1 (5%→95%→65% RH)) was “hydrated Form C”, the “Water adsorbed during sorption” value ([4]; Expt. 1 (5%→95%→65% RH), between 45-95% RH) was 2.26 molecules of water and the “Change in mass during desorption after about 75% RH” value ([4]; Expt. 2) was “about 5.2%”. The “Gained mass during desorption until about 25% RH” value ([4]; Expt. 2) was 4.2%, the “Mass increase at 85% RH during desorption” value ([4]; Expt. 2) was 17.4% and the “Maximum change in mass as water molecules” value ([4]; Expt. 2) was 5.6 water molecules. For the same compound, the “Water molecules during desorption after about 75% RH” value ([4]; Expt. 2) was “about 1.7 water molecules”, the “Water molecules during desorption until about 25% RH” value ([4]; Expt. 2) was 1.4 water molecules and the “Solid form after DVS cycle (XRPD)” value ([4]; Expt. 2 (5%→95%→5% RH)) was “mixture of Forms B and C”. For the same compound, the “Mass change, first sorption step” value ([4]; Expt. 2 (5%→95%→5% RH), between 45-85% RH) was 6.45%, the “Water molecules, first sorption step” value ([4]; Expt. 2, between 45-85% RH) was 2.1 water molecules and the “Total change in mass, second sorption step” value ([4]; Expt. 2, between 85% and 95% RH) was 16.7%. For the same compound, the “Total change in mass at 95% RH” value ([4]; Expt. 3) was 15.88%, the “Total change in mass at 95% RH as water molecules” value ([4]; Expt. 3) was 5.15 water molecules and the “Solid form after DVS cycle (XRPD)” value ([4]; Expt. 3 (5%→95% RH)) was “Forms B+C”. The “Change in mass, first step” value ([4]; Expt. 3 (5%→95% RH), between 45-85% RH) was 5.59%, the “Water molecules, first step” value ([4]; Expt. 3, between 45-85% RH) was 1.8 water molecules and the “Maximum change in mass as water molecules” value ([4]; Expt. 4) was 7.2 water molecules. For the same compound, the “Solid form after DVS cycle (XRPD)” value ([4]; Expt. 4) was “Forms C+D”, the “Maximum change in mass” value ([4]; Expt. 4 (longer equilibration; up to 95% RH for 5 h)) was 22.2% and the Hygroscopicity [4] was “hygroscopic”. The “Temperature at which (partial) conversion to Form A was observed” value [12] was 150 °C, the “Temperature at which conversion to Form A was complete” value [12] was 155 °C and the “Temperature of solid-solid transition to Form A” value (ambient humidity, increasing temperature, not reversible) was “about 150 °C”.

— patent publication US11427605B2, “Crystalline forms of 5-chloro-N4-[-2-(dimethylphosphoryl) phenyl]-N2-{2-methoxy-4-[4-(4-methylpiperazin-1-yl) piperidin-1-yl] phenyl} pyrimidine-2,4-diamine” (ARIAD Pharmaceuticals, Inc., priority 2014, dated 2022)
